# Assay results published in patent US20020148006A1, “Transgenic plants with modified sterol compositions” (Asgrow Seed Company, L.L.C., priority 1996, published 2002).
# Where two headings read alike, the source gives them in different places.
# Assays:
# [1] = test system: (S)-adenosyl-L-methionine: Δ^24-sterol methyl transferase (SMT); assay: Effect of substrate and transition state analog inhibitors on soluble SMT enzyme from 4-day seedlings; type: biochemical, Zea mays (corn); details: for Type of inhibition / kinetic pattern / Effect on the first methyl transfer / Effect on the second methyl transfer: soluble corn SMT; for Ki: soluble SMT, 4-day seedlings, NA = no inhibition
# [2] = test system: yeast sterol auxotroph, GL-7; assay: Growth support of yeast sterol auxotroph GL-7 cultured with test sterols; type: cell-based; details: sterol added to culture medium
# Procedure: The phytosterols identified in Example 1 were tested individually for their ability to support growth. In the absence of a plant sterol mutant for such studies the yeast sterol auxotroph, GL-7, was cultured in the presence of sterols identified according to Example 1, above (Li, 1996). This yeast mutant is used as a model system because it can take up sterols from the culture medium and incorporate the test sterol into the membrane lipid bilayer and proliferate. The amount of proliferation of the cells was measured in the presence and absence of hormonal levels of ergosterol, the major yeast sterol.
# Heliothis zea = assay: Sterol utilization and metabolism by Heliothis zea reared on artificial diet with sterol supplement; details: for Utilization by H. zea / support of larval growth and development (words): test sterol as sole added dietary sterol; for Sterol composition (as % total sterol): ts: insect tissues, RP-HPLC and GC-MS
# Procedure: Heliothis zea (corn earworm) was reared on an artificial diet treated with different sterol supplements to study the relation between sterol structure and utilization in insects. H. zea eggs were used to establish a disease-free stock colony.
# The stock insects were reared using sterile procedures on a pinto bean-based diet. Moths were fed 10% sucrose. Cultures were maintained at 27±1° C., at 40±10% relative humidity on a 14:10 light-dark photoperiod and an artificial diet was used to rear the insects on different sterol supplements. The experimental diet contained agar, which is known to contain trace contamination of cholesterol, otherwise the experimental diet was sterol-free.
# Sterols were solubilized in acetone. Aliquots of the solutions were added to the sterol-free diet in a mortar, the material mixed thoroughly with the diet, and the organic solvent allowed to evaporate. Sterols were supplied to the medium at 200 ppm (equivalent to 1 mg of sterol per experimental vessel containing one insect).
# By day 20, H. zea larva are in the final stage of larval development (sixth instar), after which the insects may pupate. A single neonate larva was placed in an experimental culture vial and allowed to grow for 20 days. The fresh weight, length and instar stage of 20-day larva were recorded.
# In some treatments, the larvae were allowed to grow for another 4 days to determine whether they could pupate properly and develop into moth forms.
# These fatty alcohols may comigrate with sterols during some forms of chromatography and interfere with sterol quantitation, particularly of cholesterol. Therefore, in order to confirm the identity and amount of cholesterol in the insect an aliquot of the NSF was injected into a HPLC column and the fraction corresponding to cholesterol was examined by GC-MS.
# yeast SMT enzyme = target: T1, yeast SMT enzyme (Saccharomyces cerevisiae, UniProt P25087); assay: Substrate preference / binding of yeast SMT (ERG6 product); type: biochemical
# T1 construct: made in house; host or cells: E. coli, pET23a(+)
# T1 sequence (P25087 1-383): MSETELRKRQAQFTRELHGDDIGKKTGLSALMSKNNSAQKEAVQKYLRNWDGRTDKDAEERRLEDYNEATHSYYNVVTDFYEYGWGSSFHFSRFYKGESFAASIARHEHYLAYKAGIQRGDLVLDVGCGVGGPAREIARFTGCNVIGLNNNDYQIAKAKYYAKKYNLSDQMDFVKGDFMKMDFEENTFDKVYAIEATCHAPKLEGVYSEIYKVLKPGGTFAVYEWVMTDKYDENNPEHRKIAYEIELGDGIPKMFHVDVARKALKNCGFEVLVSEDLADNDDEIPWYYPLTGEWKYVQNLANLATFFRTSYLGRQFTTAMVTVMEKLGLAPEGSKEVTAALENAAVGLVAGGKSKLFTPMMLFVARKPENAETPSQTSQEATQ
# Excerpt: The cloned ERG6 gene was expressed in E. coli (Venkatramesh et al., 1996).
# [3] = test system: (S)-adenosyl-L-methionine: Δ^24-sterol methyl transferase (SMT); assay: Sterol specificity (substrate methylation) of SMT enzyme from 4-day corn seedlings; type: biochemical, Zea mays (corn); details: for Enzyme Activity: soluble SMT from corn seedlings, BG = background; for % Activity, relative to cycloartenol methylation: soluble SMT
# Procedure: The sterol specificity of the microsome-bound and soluble SMT enzyme from 4-day corn seedlings was determined in order to elucidate the enzymatic basis for the plant sterols identified in Example 1.
# Arabidopsis SMT = target: T2, Arabidopsis SMT (Arabidopsis thaliana, UniProt Q39227); assay: Sterol transformation by recombinant Arabidopsis SMT expressed in E. coli; type: biochemical; details: recombinant fusion protein
# T2 construct: The full-length ORF containing a Nde 1 site at the start; His-tag; made in house; host or cells: E. coli, pET23a(+)
# T2 sequence (Q39227 1-361): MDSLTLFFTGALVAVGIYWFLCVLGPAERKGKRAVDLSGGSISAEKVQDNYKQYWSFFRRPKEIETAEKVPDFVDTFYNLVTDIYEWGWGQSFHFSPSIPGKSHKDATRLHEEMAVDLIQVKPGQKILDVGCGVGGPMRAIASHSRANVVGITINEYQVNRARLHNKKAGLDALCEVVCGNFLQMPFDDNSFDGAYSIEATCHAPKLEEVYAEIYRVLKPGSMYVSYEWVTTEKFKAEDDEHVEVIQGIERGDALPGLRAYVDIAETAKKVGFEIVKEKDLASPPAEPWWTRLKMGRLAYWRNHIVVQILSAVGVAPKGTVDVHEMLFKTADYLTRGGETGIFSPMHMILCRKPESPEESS
# Excerpt: The SMT gene from Arabidopsis was cloned and sequenced (FIG. 6; SEQ ID NO:3). This gene containing a His-tag was overexpressed in E. coli (Tong et al., 1997). Arabidopsis SMT was partially purified and characterized in stereochemical detail.
# The Arabidopsis SMT gene was amplified by PCR from a cDNA library. The primers used were designed from the full-length cDNA sequence retrieved from the GeneBank (Accession number X89867). The amplified product was the full-length Arabidopsis SMT gene which was sub-cloned into a T/A cloning vector and sequenced. From the sequence data the ORF was identified. A Nde I site was created at the ATG start codon through PCR mediated site-directed mutagenesis. The full-length ORF containing a Nde 1 site at the start and a BamH I site at the stop was cloned into the pET23a(+) vector just as the ERG6 gene was in Example 4. […] In the case of cycloartenol only one product was formed, which is 24(28)-methylene cycloartanol, i.e., SMTI in FIG. 4. Since a single gene product was able to metabolize both sterol substrates it further confirms the enzymological data in Example 3.
# [4] = test system: 3-hydroxy-3-methylglutaryl-coenzyme A reductase (HMGR); assay: Microsomal HMGR activity during seedling development; type: biochemical, corn; parameters: dose or concentration left out as unconfirmed
# SMT = assay: Substrate preference of SMT in microsome preparations of P. wickerhamii; type: biochemical, Prototheca wickerhamii
# Excerpt: However, the preferred product is not 24(28)-methylene cycloartenol but cyclolaudenol (VII) which is a Δ^25(27)-24-alkyl sterol, a nonutilizable sterol.
# [5] = Table 11, sterol 200 ppm in diet
# [6] = Table 11, sterol 200 ppm in diet, 20-day larvae, relative to growth on cholesterol normalized to 100%
# [7] = substrates marked (C1), first methyl transfer
# [8] = read-out: Ki relative to the first methyl transfer
compound,measurement,setting,value
"CC(CCC1NC1(C)C)[C@H]1CC[C@@]2(C)C3=C(CC[C@]12C)[C@]1(C)CC[C@H](O)C(C)(C)[C@@H]1CC3 (stereo partly drawn) [24-(R,S)-25-Epiminolanosterol, 24-(R,S)-25-epiminolanosterol]",Type of inhibition / kinetic pattern,[1],non-competitive type kinetic pattern
"CC(C)C(C)CCC(C)C1CCC2C3CC=C4CC(O)CCC4(C)C3CCC12C (stereo not shown) [Campesterol, campesterol]",Effect on the first methyl transfer,[1],failed to inhibit either the first or second methylation reaction
same,Effect on the second methyl transfer,[1],failed to inhibit either the first or second methylation reaction
CC(C)CCC[C@@H](C)[C@H]1CC[C@H]2[C@@H]3CC=C4C[C@@H](O)CC[C@]4(C)[C@H]3CC[C@]12C [Cholesterol],Effect on growth of GL-7,[2],without affecting the rate of growth of the cells
same,Dietary concentration that enhanced the rate of development of larvae,Heliothis zea; % of diet,≥ 0.015%
same,Minimal dietary concentration necessary for larvae to grow and pupate,Heliothis zea; % of the experimental diet,0.01%
same,Instar reached by day 20,Heliothis zea; [5],6
same,Growth response,Heliothis zea; [6],100%
same,Growth response,"Heliothis zea; Table 12, cholesterol / 24,25-dihydrolanosterol mixtures in diet",100
same,Instar reached by day 20,"Heliothis zea; Table 12, sterol mixtures",6
same,Sterol composition (as % total sterol): cholesterol,"Heliothis zea; Table 12, sterol recovered from insect",(100%)
same,Utilization by H. zea / support of larval growth and development (words),Heliothis zea,supported larval growth to late-sixth instar
CC(C)=CCC[C@@H](C)[C@H]1CC[C@H]2C3=C(CC[C@]12C)[C@@]1(C)CC[C@H](O)C[C@@H]1CC3 [Zymosterol],Substrate preference / binding to yeast SMT (words),yeast SMT enzyme,preferred sterol substrate of yeast SMT enzyme
same,Substrate preference / binding to yeast SMT (words),yeast SMT enzyme; listed as zymosterol,preferred substrate of the yeast SMT
same,Enzyme Activity,[3]; [7],"5,252 dpm/min"
same,"% Activity, relative to cycloartenol methylation","[3]; (C1), first methyl transfer",14 (C1) %
same,Substrate quality for corn SMT,[3]; soluble enzyme,poor sterol substrate of the first methylation reaction
CC(C)[C@@H](C)/C=C/[C@@H](C)[C@H]1CC[C@H]2C3=CC=C4C[C@@H](O)CC[C@]4(C)[C@H]3CC[C@]12C [Ergosterol],Effect on growth of GL-7,[2],sparking growth
same,Sterol composition (as % total sterol): ts,Heliothis zea; Table 11,36%
same,Instar reached by day 20,Heliothis zea; [5],3
same,Growth response,Heliothis zea; [6],30%
"26,27-Cyclopropylidene cycloartenol",Substrate preference / binding to yeast SMT (words),yeast SMT enzyme,failed to bind to the yeast SMT enzyme
same,Ki,[1]; [8],25 µM
same,Effect on the second methyl transfer,[1],not affecting the second methyl transfer
same,Type of inhibition / kinetic pattern,[1],potent competitive inhibitor
C=C(CC[C@@H](C)[C@H]1CC[C@H]2C3=CCC4C(C)C(O)CC[C@]4(C)[C@H]3CC[C@]12C)C(C)C (stereo partly shown) [24(28)-Methylenelophenol],Transformation by recombinant Arabidopsis SMT,Arabidopsis SMT,active in transforming both cycloartenol and 24(28)-methylene lophenol to their respective alkyl products
same,Vmax,[3]; second transmethylation,1 pmol/min/mg protein
same,Enzyme Activity,"[3]; substrates marked (C2), second methyl transfer","3,800 dpm/min"
same,"% Activity, relative to cycloartenol methylation","[3]; (C2), second methyl transfer",10 (C2) %
same,Substrate quality for corn SMT,[3]; soluble enzyme,preferred sterol substrate for the second methylation reaction
same,Km,"[3]; sterol substrate of the second transmethylation, read-out: Km",11 µM
"CCC(CCC(C)C1CCC2C3CC=C4CC(O)CCC4(C)C3CCC12C)C(C)C (stereo not shown) [Sitosterol, sitosterol]",Effect on growth of GL-7,[2],without affecting the rate of growth of the cells
same,Effect on HMGR activity,[4],neither sitosterol nor 24(28)-methylene cycloartanol at 100 mM affected HMGR activity
same,Sterol composition (as % total sterol): ts,Heliothis zea; Table 11,20%
same,Instar reached by day 20,Heliothis zea; [5],6
same,Growth response,Heliothis zea; [6],100%
same,Utilization by H. zea / support of larval growth and development (words),Heliothis zea,supported larval growth to late-sixth instar
same,"Ki, second methyl transfer",[1],100 µM
same,Ki,[1]; read-out: Ki relative to the second methyl transfer,100 µM
same,Effect on the first methyl transfer,[1],without affecting the first methyl transfer
"CC(C)=CCC[C@@H](C)[C@H]1CC[C@@]2(C)[C@@H]3CC[C@H]4C(C)(C)[C@@H](O)CC[C@@]45C[C@@]35CC[C@]12C [Cycloartenol, cycloartenol]",Transformation by recombinant Arabidopsis SMT,Arabidopsis SMT,active in transforming both cycloartenol and 24(28)-methylene lophenol to their respective alkyl products
same,Substrate preference of P. wickerhamii SMT,SMT,preferred substrate
same,Vmax,[3]; first transmethylation,4 pmol/min/mg protein
same,Substrate quality for corn SMT,[3]; microsome-bound enzyme system,preferred sterol acceptor
same,Enzyme Activity,[3]; [7],"37,515 dpm/min"
same,"% Activity, relative to cycloartenol methylation","[3]; (C1), first methyl transfer",100 (C1) %
same,Substrate quality for corn SMT,[3]; soluble enzyme,preferred substrate for the first methylation reaction
same,Instar reached by day 20,Heliothis zea; [5],3
same,Growth response,Heliothis zea; [6],5%
same,Utilization by H. zea / support of larval growth and development (words),Heliothis zea,inhibit insect growth
same,Utilization by H. zea / support of larval growth and development (words),Heliothis zea; listed as cycloartenol,could not be met satisfactorily
C=C(CCC(C)C1CCC2(C)C3CCC4C(C)(C)C(O)CCC45CC35CCC12C)C(C)C (stereo not shown) [24(28)-Methylene cycloartanol],Effect on HMGR activity,[4],neither sitosterol nor 24(28)-methylene cycloartanol at 100 mM affected HMGR activity
same,"% Activity, relative to cycloartenol methylation","[3]; (C2), second methyl transfer",0 (C2) %
same,Ki,[1]; [8],20 µM
same,Effect on the second methyl transfer,[1],failed to inhibit the second methyl transfer
